Article PMC5742583, “A Functional Analysis on the Interspecies Interaction between Mouse LFA-1 and Human Intercellular Adhesion Molecule-1 at the Cell Level” (Frontiers in Immunology, 2017)
Where no end group is shown, it is not given here.

Columns and labels:
mouse macrophages = experiment: Mouse macrophage adhesion to uncoated plastic (MTT); type: cell-based; settings: lovastatin 100 µM, 37°C overnight
Experimental: Mouse macrophages were differentiated from mouse bone marrow as previously described ([37]). Briefly, bone marrow cells isolated from mouse femur were cultured in DMEM 10% FBS, 5% horse serum, and 30% supernatant of L929 cell culture as a source of M-CSF at a density of 10^6/cm^2 for 7–8 days. Macrophage differentiation was analyzed in the same way as human macrophages but using CD11b-APC and CD11c-PE (BD) antibodies.
Freshly isolated monocytes or differentiated macrophages were washed twice with PBS and incubated with trypsin (PAN Biotech) for 30 min at 37°C 5% CO2. After that, cells were scraped gently from the plate and resuspended at a final concentration of 10^6 cells/ml in complete RPMI medium. Subsequently, 10^5 macrophages and 5 × 10^5 monocytes were added to each well and incubated with several concentrations of human D1D2, D1D2Fc, D1D5Fc, mouse D1D5Fc, control human IgG1 20 µg or lovastatin 100 µM at 37°C 5% CO2 overnight. Next day, every well was washed twice with PBS, complete RPMI medium was added and the number or adherent remaining cells was quantified by a MTT colorimetric test ([38]). In some experiments, plates previously coated with human and mouse D1D5Fc were used. […]
Figure 7 Human intercellular adhesion molecule (ICAM)-1 blocks LFA-1-mediated mouse macrophage cell adhesion. […] (B) Macrophage phenotype was analyzed by flow cytometry testing the expression CD11b and CD11c. […]

[1] = tested on: gp33-pulsed EL4 cells killed by mouse Tc cells (ICAM-1/LFA-1); experiment: CD8+ T cell-mediated cytotoxicity on EL4; type: cell-based; settings: preincubation 45 min 37°C, effector:target 10:1, 4 h
VLA-4 = settings: cited from earlier work
Source text: (§1) In contrast, cell aggregates were clearly visible in cultures after stimulation (Figure 3A, b). […] Macrophage phenotype was confirmed by testing surface antigens by flow cytometry. Monocyte-derived macrophages expressed higher levels of HLA-DR and CD14 than undifferentiated monocytes ([51]). In addition, expression of CD54 (ICAM-1) was diminished in comparison with freshly isolated monocytes (Figure 6B). […] As shown ...

Mac-1 = settings: cited from earlier work
Source text: as §1

ICAM-1/LFA-1 interaction = settings: cited from earlier work
Experimental: Human and mouse LFA-1-derived peptides (human: CD11a237–261; mouse: CD11a235–259) were purchased from GenScript (Piscataway, USA) without any modification. […] Besides, incubation cells with a mouse antiCD1 ...

human macrophages = experiment: Human macrophage adhesion to plastic (MTT); type: cell-based; settings: lovastatin 100 µM, 37°C overnight
Experimental: (§2) Monocytes were isolated from human peripheral blood mononuclear cells (PBMCs), obtained from healthy donors (Blood and Tissue Bank of Aragon; approved by the CEICA, number: C.I.PI11/006) by density gradient centrifugation using Ficoll-Paque (GE healthcare). PBMCs were resuspended at a concentration of 2.5 × 10^6 cells/ml in RPMI medium supplemented with 1% heat-inactivated human AB serum (Sigma). Cells were cultured in a Petri dish for 2 h at 37°C 5% CO2. […]
(§3) Freshly isolated monocytes or differentiated macrophages were washed twice with PBS and incubated with trypsin (PAN Biotech) for 30 min at 37°C 5% CO2. […] Next day, every well was washed twice with PBS, complete RPMI medium was added and the number or adherent remaining cells was quantified by a MTT colorimetric test ([38]). […]
(§4) Figure 6 LFA-1 is involved in human macrophage adhesion. […] (B) Macrophage phenotype was analyzed by flow cytometry testing the expression of HL-DR, CD14, CD54, and CD11a. […] Subsequently, every well was washed twice with PBS to remove non-adherent cells and quantification of cell adhesion was carried out by MTT as described in Section “Experimental Procedures.” Values are presented as mean ± SEM of three independent experiments performed by duplicate. […]

human monocytes = experiment: Human monocyte adhesion to plastic (MTT); type: cell-based; settings: lovastatin 100 µM, 37°C overnight
Experimental: as §2, §3, §4

[2] = tested on: mouse B cells (ICAM-1/LFA-1 interaction); experiment: Homotypic B cell aggregation assay; type: cell-based; settings: splenocytes activated with PHA and ionomycin, overnight 37°C
Experimental: To obtain these cells, mice were sacrificed by cervical dislocation, the spleens were removed, and splenocytes were isolated and resuspended in RPMI 10% FBS at a final concentration of 10^6 cells/ml. Cells were treated with 10 µg/ml PHA and 1 µg/ml ionomycin to activate LFA-1 and incubated at 37°C 5% CO2 overnight in flat bottom 96-well plates (10^5 cells) in the presence of peptides from LFA-1 and c-Myc (control) 250 µM, D1D2, D1D2Fc, and human IgG1 10 µg, EGTA 1 mM and lovastatin 100 µM. A qualitative aggregation assay was carried out as described ([36], [41]) with a slight modification. Briefly, positive control stimulated cell samples were arbitrarily assigned a clumping index of 10 and lovastatin samples an index of 1. Test samples were ranked from 1 to 10 based upon degree of clumping relative to stimulated and lovastatin-treated samples. Results were verified by a blind independent rating performed by a second observer.
Fresh mouse B cells were obtained from splenocytes and stimulated with PHA and ionomycin to induce homotypic adhesion. The results were quantified by establishing a clumping index that represents the degree of cell aggregation, which reflects the inhibition efficiency (Figure 3B). Cell aggregation was ranked by a clumping index from 1 to 10 based on the degree of aggregation in comparison with the stimulated cells (positive control, clumping index = 10).
Figure 3 Effect of human (ICAM-1) on the aggregation of mouse spleen cells. (A) Splenocytes isolated from mice were non treated (a) or activated with PHA (b–i) as described in Section “Experimental Procedures” and further incubated overnight with (b) medium; (c) IgG1; (d) c-Myc peptide; (e) EGTA; (f) lovastatin; (g) D1D2; (h) D1D2Fc; (i) mouse LFA-1 peptide CD11a235–259. Images were taken with an optical microscope (original magnification, 10×). Representative images from two independent experiments with similar results are shown. (B) The graph represents the rate of agglutination depending on the inhibitory effect on ICAM-1/LFA-1 interaction. Cells stimulated with PHA and ionomycin, which served as a positive control, were arbitrarily assigned agglutination index 10, which represents a percentage of aggregation between 90 and 100%. Homotypic aggregation was classified from 1 to 10 depending on the degree of aggregation relative to cells stimulated. The result was verified by a second independent observer. Values are presented as mean ± SEM of two separate experiments performed by duplicate. Statistical analysis was performed using two-way analysis of variance with Bonferroni’s posttest comparing with c-Myc peptide control. *p < 0.05; ***p < 0.001.

[3] = tested on: K562 cells killed by human NK cells (ICAM-1/LFA-1); experiment: NK cell-mediated cytotoxicity on K562; type: cell-based; settings: peptide 250 µM, preincubation 45 min 37°C; effector:target 3:1, 4 h; annexin-V/7-AAD by FACS; vs c-Myc control; two experiments by duplicate
Experimental: The effect of human and mouse peptides derived from LFA-1 on ICAM-1/LFA-1 dependent cell–cell contact was analyzed by performing a cell cytotoxicity assay using human primary NK cells and the NK cell sensitive human leukemia K562. Primary activated human NK cells were generated by culturing PBMCs with mitomycin C inactivated R69 cells for 5 days and enriched by MACS using anti-CD56 antibodies as previously described ([39]). Cell cytotoxicity induced by NK cells on K562 was analyzed by flow cytometry as previously described ([39]). Briefly, K562 cells were preincubated with medium alone, in the presence of 250 µM of human and mouse peptides from LFA-1 or D1D2 (15 µg) for 45 min at 37°C. Then, NK cells were added at 3:1 effector:target cell ratio and incubated for 4 h at 37°C, 5% CO2. Subsequently, phosphatidylserine exposure and 7-AAD uptake were analyzed by FACS using the annexin-V/7-AAD kit from Immunostep. As a control, the cells were incubated alone with the inhibitors to evaluate their possible toxicity, which was not significant in any case.
Figure 4 Inhibition of natural killer (NK) cell-mediated cytotoxicity by human intercellular adhesion molecule-1. […] Cell death was analyzed by measuring translocation of PS by flow cytometry in the negative population for CFSE as described in experimental procedures. […]

D1D2Fc = target: T1, D1D2Fc (Homo sapiens, UniProt P05362); experiment: Isothermal titration calorimetry (ITC); settings: VP-ITC, D1D2Fc 12 µM titrated with peptide 150 µM, PBS, 25°C, 1:n interaction model, single type of binding sites, nonlinear regression, read-out: dissociation constant (KD)
T1 construct: The synthetic first two domains of ICAM-1 alone (D1D2) or linked with human IgG1 Fc region (D1D2Fc) were expressed in Escherichia coli; made in house; host or cells: Escherichia coli
T1 sequence (P05362 with tags, fused parts or gaps limits assumed): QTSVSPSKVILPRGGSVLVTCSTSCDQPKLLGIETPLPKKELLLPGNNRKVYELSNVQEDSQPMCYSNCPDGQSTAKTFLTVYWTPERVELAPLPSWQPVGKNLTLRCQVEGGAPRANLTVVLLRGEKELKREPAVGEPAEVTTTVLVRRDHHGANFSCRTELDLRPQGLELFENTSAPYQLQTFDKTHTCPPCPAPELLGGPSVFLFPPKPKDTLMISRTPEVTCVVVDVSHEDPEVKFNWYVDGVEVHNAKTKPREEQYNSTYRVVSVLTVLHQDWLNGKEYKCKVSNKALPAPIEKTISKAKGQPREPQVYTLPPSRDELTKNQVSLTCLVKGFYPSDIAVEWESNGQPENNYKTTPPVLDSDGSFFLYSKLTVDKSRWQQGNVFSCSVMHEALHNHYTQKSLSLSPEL
Experimental: The ability of the human chimera D1D2Fc to interact with a peptide derived from its natural ligand LFA-1 in mouse was analyzed by ITC on a VP-ITC calorimeter (MicroCal) at 25°C as indicated previously ([34]). Briefly, 2.2 ml of a 12-µM solution of D1D2Fc and 0.5 ml of a 150-µM solution of peptide were prepared in PBS and degassed. Each assay consisted of a series of 28 injections of peptide solution of 10 µl each (with a 4-µl first injection) at 400 s intervals under constant stirring (459 rpm). The thermal power required to keep the cell at a constant temperature is measured, so that it provides the heat associated with each ligand injection after integrating the signal over time. The thermodynamic parameters of protein–peptide interactions (affinity, enthalpy, and entropy changes) as well as the stoichiometry were estimated by using nonlinear regression analysis. Data were analyzed using the software developed and implemented in Origin 7.0 (OriginLab).
Figure 1 Interaction of LFA-1 peptide with D1D2Fc by isothermal titration calorimetry. Purified D1D2Fc (12 µM) was titrated with a peptide derived from the binding site of mouse LFA-1 (CD11a235–259; 150 µM). The assay was performed in PBS buffer at 25°C. The nonlinear regression analysis done as described in Section “Experimental Procedures” provided a dissociation constant of 70 nM.

| Molecule | inhibition of adhesion of mouse macrophages (mouse macrophages) | inhibition of Tc cell-mediated cell death of EL4 ([1]; lovastatin 100 µM) | effect on VLA-4 (VLA-4; ref [42], [43]) | inhibition of VLA-4 (VLA-4; ref [43]) | effect on Mac-1 (Mac-1; ref [42], [43]) | inhibition of Mac-1 (Mac-1; ref [43]) | specific block of ICAM-1/LFA-1 interaction (ICAM-1/LFA-1 interaction; ref [42], [43]) | inhibition of adhesion of human macrophages (human macrophages) | inhibition of adhesion of human monocytes (human monocytes) | inhibition of B cell aggregation ([2]; lovastatin 100 µM, assigned clumping index 1) | inhibition of Tc cell-mediated cell death of EL4 ([1]; peptide 250 µM, three experiments by duplicate) | inhibition of NK cell-mediated cell death of K562 [3] | Kd (D1D2Fc) [nM] | ability to block ICAM-1/LFA-1 interaction (ICAM-1/LFA-1 interaction; ref [36]) | inhibition of B cell aggregation ([2]; peptide 250 µM, clumping index 1-10, two experiments by duplicate) |
| --- | --- | --- | --- | --- | --- | --- | --- | --- | --- | --- | --- | --- | --- | --- | --- |
| CC[C@H](C)C(=O)O[C@H]1C[C@@H](C)C=C2C=C[C@H](C)[C@H](CC[C@@H]3C[C@@H](O)CC(=O)O3)[C@H]21 [lovastatin, reference compound] | completely inhibit the adhesion | inhibited cell death | without affecting | not inhibited | without affecting | not inhibited | specifically block ICAM-1/LFA-1 interaction | block completely cell adhesion | block completely cell adhesion | inhibit completely the aggregation |  |  |  |  |  |
| ITDGEASDKGNISAAHDITRYIIGI [CD11a235–259] |  |  |  |  |  |  |  |  |  |  | able to inhibit cytotoxicity | significantly inhibit cell death | 70 | ability to block ICAM-1/LFA-1 interaction | completely blocked B cell aggregation |
